Source: US20060178318A1, “Use of aurora kinase inhibitors for reducing the resistance of cancer cells” (priority 2003, published 2006)

Legend:
HeLa cells [1] = settings: stated as known; cited from earlier work
HeLa cells [2] = assay: Taxol sensitivity assay (apoptosis, propidium iodide staining and flow cytometry); type: cell-based, human; settings: Aurora-A-overexpressing vs mock-transfected HeLa cells, different concentrations of Taxol for 72 hr, FIG. 1
Procedure: 2×10^5 cells in complete growth medium were plated in a 35 mm dish before transfection using the Gene Juice transfection reagent (Novagen, United Kingdom) according to the manufacturer's protocol. GFP-expressing cells were flow sorted as before, 48 hr after transfection. Equal numbers of flow sorted mock-transfected or Aurora-A-transfected HeLa cell were plated on 6 well plates in DMEM (Life Technologies, Grand Island, N.Y.) containing 10% FBS. Taxol (Sigma Chemical Co.) at different concentrations was added fresh from a stock prepared in DMSO. The cells were exposed to the drug for 72 hr after which they were analyzed by propidium iodide staining and flow cytometry as described earlier. Cells collected at the indicated time points were centrifuged at 1000 rpm for 5 min at room temperature. 1×10^6 cells were resuspended in 0.5 ml PBS, fixed by adding 4.5 ml of ice-cold 70% ethanol, and incubated overnight in fixative at 4° C. Before analysis, fixed cells were washed in PBS and incubated with propidium iodide staining solution (0.1% Triton.X-100, PBS; 0.02 mg/ml propidium iodide; 0.2 mg/ml RnaseA) for 30 min at room temperature. […] Ten thousand events were analyzed per sample. […] The percentage of apoptotic cells was then measured using propidium iodide staining and flow cytometry to enumerate the sub G1 (<2N DNA content) population.

tubulin = settings: compared with paclitaxel; cited from earlier work

| Compound | sensitivity of HeLa cells to Taxol-induced apoptosis (HeLa cells [1]) | resistance to paclitaxel-induced apoptosis (percentage of apoptotic cells, sub G1 population) (HeLa cells [2]) | tubulin-assembly activity relative to paclitaxel (tubulin) |
| --- | --- | --- | --- |
| CC(=O)O[C@H]1C(=O)[C@@]2(C)[C@H]([C@H](OC(=O)c3ccccc3)[C@]3(O)C[C@H](OC(=O)[C@H](O)[C@@H](NC(=O)c4ccccc4)c4ccccc4)C(C)=C1C3(C)C)[C@]1(OC(C)=O)CO[C@@H]1C[C@@H]2O [paclitaxel] | highly sensitive | striking increase in resistance | – |
| A-nor-paclitaxel | – | – | only three times less than that of paclitaxel |
